{"source": "patent US20250360132A1", "about": "“METHODS OF ADMINISTERING MYOSIN INHIBITORS” (MYOKARDIA, INC., priority 2022, published 2025)", "key": {"CYP2C19 [1]": {"system": "CYP2C19", "assay": "Pharmacogenomics: CYP2C19 PMs vs NMs, single dose", "type": "in vivo, human", "details": "single dose of 15 mg mavacamten", "source_text": "Mean half-life is prolonged in CYP2C19 PMs compared to NMs (23 days vs. 6 to 9 days, respectively).\nPolymorphic CYP2C19 is the main enzyme involved in the metabolism of MAVACAMTEN. An individual carrying two normal function alleles is a NM (e.g., *1/*1). An individual carrying two no function alleles is a PM (e.g., *2/*2, *2/*3, *3/*3)."}, "[2]": {"system": "adults with symptomatic NYHA class II and III obstructive HCM", "assay": "EXPLORER-HCM Phase 3, double-blind, randomized, placebo-controlled trial", "type": "in vivo, human", "procedure": "The safety of MAVACAMTEN was evaluated in EXPLORER-HCM, a Phase 3, double-blind, randomized, placebo-controlled trial. Of the 251 adults with obstructive HCM, 123 patients were treated with MAVACAMTEN 2.5-15 mg daily and 128 were treated with placebo.\nThe efficacy of MAVACAMTEN was evaluated in EXPLORER-HCM (NCT-03470545) a Phase 3, double-blind, randomized, placebo-controlled, multicenter, international, parallel-group trial in 251 adults with symptomatic NYHA class II and III obstructive HCM, LVEF ≥55%, and Valsalva LVOT peak gradient ≥50 mmHg at rest or with provocation.\nPatients on dual therapy with beta blocker and calcium channel blocker treatment or monotherapy with disopyramide or ranolazine were excluded. Patients with a known infiltrative or storage disorder causing cardiac hypertrophy that mimicked obstructive HCM, such as Fabry disease, amyloidosis, or Noonan syndrome with left ventricular hypertrophy, were also excluded.\nPatients were randomized in a 1:1 ratio to receive either a starting dose of 5 mg of MAVACAMTEN or placebo once daily for 30 weeks. Treatment assignment was stratified by baseline NYHA functional class, baseline use of beta blockers, and type of ergometer (treadmill or exercise bicycle).\nAll patients were initiated on MAVACAMTEN 5 mg (or matching placebo) once daily, and the dose was periodically adjusted to optimize patient response (decrease in LVOT gradient with Valsalva maneuver) and maintain LVEF ≥50%. The dose was also informed by plasma concentrations of MAVACAMTEN.\nThe primary composite functional endpoint, assessed at 30 weeks, was defined as the proportion of patients who achieved either improvement of […] (pVO2) by ≥1.5 mL/kg/min plus improvement in NYHA class by at least 1 or improvement of pVO2 by ≥3.0 mL/kg/min plus no worsening in NYHA class.\nThe treatment effects of MAVACAMTEN on LVOT obstruction, functional capacity, and health status were assessed by change from baseline through Week 30 in post-exercise LVOT peak gradient, change in pVO2, proportion of patients with improvement in NYHA class, Kansas City Cardiomyopathy Questionnaire-23 (KCCQ-23) Clinical Summary Score (CSS), and Hypertrophic Cardiomyopathy Symptom Questionnaire (HCMSQ) Shortness of Breath (SoB) domain score.\nMissing data were not imputed to summarize the baseline and change from baseline to Week 30 values. Difference in mean change from baseline between treatment groups was estimated using a mixed model for repeated measures."}, "CYP2B6 [3]": {"system": "CYP2B6", "assay": "In vitro CYP induction", "type": "in vitro ADME", "source_text": "(§1) Mavacamten is a CYP2B6 inducer."}, "CYP2C8": {"biological_target": "CYP2C8 (Homo sapiens, UniProt P10632)", "sequence (P10632 whole entry)": "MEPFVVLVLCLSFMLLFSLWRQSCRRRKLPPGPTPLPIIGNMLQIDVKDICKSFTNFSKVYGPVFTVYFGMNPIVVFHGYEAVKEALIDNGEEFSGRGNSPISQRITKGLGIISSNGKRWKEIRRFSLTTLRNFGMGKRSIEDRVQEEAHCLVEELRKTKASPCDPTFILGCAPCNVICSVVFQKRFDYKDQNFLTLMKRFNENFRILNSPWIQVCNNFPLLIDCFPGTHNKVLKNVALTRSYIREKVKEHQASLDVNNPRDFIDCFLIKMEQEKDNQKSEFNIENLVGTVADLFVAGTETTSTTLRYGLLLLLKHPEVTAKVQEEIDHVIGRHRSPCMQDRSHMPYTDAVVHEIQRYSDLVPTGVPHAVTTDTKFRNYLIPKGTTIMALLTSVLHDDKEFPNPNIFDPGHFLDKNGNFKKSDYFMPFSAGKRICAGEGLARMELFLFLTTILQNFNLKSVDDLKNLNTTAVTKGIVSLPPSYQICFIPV", "assay": "In vitro CYP inhibition", "type": "in vitro ADME", "source_text": "as §1"}, "CYP3A4": {"biological_target": "CYP3A4 (Homo sapiens, UniProt P08684)", "sequence (P08684 whole entry)": "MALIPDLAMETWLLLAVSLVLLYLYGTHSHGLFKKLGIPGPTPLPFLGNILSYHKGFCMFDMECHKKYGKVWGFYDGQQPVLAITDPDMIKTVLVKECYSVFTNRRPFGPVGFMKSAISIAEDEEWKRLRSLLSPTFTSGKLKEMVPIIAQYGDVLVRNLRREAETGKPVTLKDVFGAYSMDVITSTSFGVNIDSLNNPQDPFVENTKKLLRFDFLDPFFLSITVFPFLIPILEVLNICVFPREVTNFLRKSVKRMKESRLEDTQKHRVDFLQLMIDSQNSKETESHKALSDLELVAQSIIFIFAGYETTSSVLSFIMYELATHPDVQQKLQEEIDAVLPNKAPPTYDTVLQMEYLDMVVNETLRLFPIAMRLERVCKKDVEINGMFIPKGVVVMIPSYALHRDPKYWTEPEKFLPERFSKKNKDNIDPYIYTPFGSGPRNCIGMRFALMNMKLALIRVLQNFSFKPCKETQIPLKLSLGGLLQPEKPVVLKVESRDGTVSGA", "assay": "In vitro CYP inhibition", "type": "in vitro ADME", "details": "at clinically relevant concentrations", "source_text": "as §1"}, "CYP1A2": {"biological_target": "CYP1A2 (Homo sapiens, UniProt P05177)", "sequence (P05177 whole entry)": "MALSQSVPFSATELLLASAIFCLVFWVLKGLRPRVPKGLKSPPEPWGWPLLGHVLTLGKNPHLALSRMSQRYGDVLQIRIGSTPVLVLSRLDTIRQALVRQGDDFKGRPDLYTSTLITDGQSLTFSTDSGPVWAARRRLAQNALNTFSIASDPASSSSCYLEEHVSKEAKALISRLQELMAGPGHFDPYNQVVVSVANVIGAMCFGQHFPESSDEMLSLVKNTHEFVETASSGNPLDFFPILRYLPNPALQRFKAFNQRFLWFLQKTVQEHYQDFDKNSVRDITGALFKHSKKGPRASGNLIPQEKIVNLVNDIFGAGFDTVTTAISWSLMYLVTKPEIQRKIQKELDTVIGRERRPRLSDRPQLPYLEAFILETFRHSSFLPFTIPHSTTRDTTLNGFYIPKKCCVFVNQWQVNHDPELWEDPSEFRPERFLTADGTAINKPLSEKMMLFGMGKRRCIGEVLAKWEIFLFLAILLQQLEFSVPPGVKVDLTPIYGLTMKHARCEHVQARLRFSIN", "assay": "In vitro CYP inhibition", "type": "in vitro ADME", "source_text": "as §1"}, "CYP2B6 [4]": {"biological_target": "CYP2B6 (Homo sapiens, UniProt P20813)", "sequence (P20813 whole entry)": "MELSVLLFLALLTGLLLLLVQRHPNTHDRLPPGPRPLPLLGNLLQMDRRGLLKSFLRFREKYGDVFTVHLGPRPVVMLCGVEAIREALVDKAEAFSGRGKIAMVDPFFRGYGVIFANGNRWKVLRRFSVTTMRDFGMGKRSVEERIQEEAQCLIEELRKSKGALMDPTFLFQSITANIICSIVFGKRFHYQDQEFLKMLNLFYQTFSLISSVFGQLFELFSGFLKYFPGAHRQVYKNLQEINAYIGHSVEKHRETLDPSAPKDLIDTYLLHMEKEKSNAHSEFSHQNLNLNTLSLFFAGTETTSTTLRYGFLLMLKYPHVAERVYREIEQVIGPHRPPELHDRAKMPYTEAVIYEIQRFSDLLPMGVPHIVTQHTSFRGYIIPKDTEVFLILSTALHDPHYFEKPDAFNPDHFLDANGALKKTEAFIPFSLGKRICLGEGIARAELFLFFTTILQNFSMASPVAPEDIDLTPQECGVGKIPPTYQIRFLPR", "assay": "In vitro CYP inhibition", "type": "in vitro ADME", "source_text": "as §1"}, "CYP2C19 [5]": {"biological_target": "T1, CYP2C19 (Homo sapiens, UniProt P33261)", "T1 sequence (P33261 whole entry)": "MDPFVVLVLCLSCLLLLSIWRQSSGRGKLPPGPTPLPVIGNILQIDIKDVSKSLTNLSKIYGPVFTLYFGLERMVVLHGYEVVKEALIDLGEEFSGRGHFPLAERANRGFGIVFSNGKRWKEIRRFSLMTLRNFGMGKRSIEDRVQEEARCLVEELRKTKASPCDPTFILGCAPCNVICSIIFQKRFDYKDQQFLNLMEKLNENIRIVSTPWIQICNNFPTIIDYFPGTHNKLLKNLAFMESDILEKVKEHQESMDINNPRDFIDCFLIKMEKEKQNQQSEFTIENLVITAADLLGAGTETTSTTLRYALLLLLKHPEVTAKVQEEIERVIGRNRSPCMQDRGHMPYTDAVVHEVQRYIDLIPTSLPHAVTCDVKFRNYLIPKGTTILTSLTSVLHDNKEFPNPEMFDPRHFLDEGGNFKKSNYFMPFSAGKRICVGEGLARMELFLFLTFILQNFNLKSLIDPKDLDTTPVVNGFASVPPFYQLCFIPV", "assay": "In vitro CYP inhibition", "type": "in vitro ADME", "details": "at clinically relevant concentrations", "source_text": "as §1"}, "CYP2C9": {"biological_target": "CYP2C9 (Homo sapiens, UniProt P11712)", "sequence (P11712 whole entry)": "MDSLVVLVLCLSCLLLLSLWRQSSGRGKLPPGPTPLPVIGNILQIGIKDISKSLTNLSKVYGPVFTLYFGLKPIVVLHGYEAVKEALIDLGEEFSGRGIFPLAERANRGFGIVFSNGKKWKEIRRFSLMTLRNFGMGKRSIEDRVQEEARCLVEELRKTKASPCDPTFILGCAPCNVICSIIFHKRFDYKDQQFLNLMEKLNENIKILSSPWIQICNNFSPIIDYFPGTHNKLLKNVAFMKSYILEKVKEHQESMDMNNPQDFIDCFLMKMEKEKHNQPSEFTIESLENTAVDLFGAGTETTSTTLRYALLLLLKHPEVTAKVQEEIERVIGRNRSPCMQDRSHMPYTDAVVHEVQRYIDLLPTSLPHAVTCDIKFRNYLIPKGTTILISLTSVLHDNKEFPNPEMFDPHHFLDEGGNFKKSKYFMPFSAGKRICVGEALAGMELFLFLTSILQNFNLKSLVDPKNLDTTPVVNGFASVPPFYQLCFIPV", "assay": "In vitro CYP inhibition", "type": "in vitro ADME", "details": "at clinically relevant concentrations", "source_text": "as §1"}, "CYP2D6": {"biological_target": "CYP2D6 (Homo sapiens, UniProt P10635)", "sequence (P10635 whole entry)": "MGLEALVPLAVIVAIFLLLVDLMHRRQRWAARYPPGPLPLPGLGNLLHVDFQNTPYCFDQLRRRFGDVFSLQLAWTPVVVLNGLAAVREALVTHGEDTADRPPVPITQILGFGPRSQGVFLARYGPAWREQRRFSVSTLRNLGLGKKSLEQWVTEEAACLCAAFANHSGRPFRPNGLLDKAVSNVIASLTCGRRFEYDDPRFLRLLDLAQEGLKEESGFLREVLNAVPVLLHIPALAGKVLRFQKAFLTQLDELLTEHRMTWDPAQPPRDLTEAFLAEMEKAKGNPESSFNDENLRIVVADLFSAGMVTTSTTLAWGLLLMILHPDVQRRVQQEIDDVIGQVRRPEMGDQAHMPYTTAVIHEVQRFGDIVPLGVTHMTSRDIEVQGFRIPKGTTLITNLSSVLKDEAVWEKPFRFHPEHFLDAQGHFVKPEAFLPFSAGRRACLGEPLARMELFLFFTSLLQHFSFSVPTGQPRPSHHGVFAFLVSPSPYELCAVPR", "assay": "In vitro CYP inhibition", "type": "in vitro ADME", "details": "at clinically relevant concentrations", "source_text": "as §1"}, "CYP2C19 [6]": {"biological_target": "T1, CYP2C19", "assay": "Clinical DDI with weak CYP2C19 inhibitor omeprazole", "type": "in vivo", "design": "host or cells: in silico (Simcyp v19)", "details": "mavacamten 15 mg with omeprazole 20 mg once daily; healthy CYP2C19 NMs and RMs"}, "rats": {"system": "rats", "assay": "Animal toxicology, rats", "type": "in vivo", "procedure": "The safety of mavacamten has been evaluated in rats and dogs at multiple dose levels (0.06 to 10 mg/kg/day) orally. […] Plasma exposures (AUC) at the NOAEL in rats and dogs were 0.1 and 0.3 times, respectively, human exposure (AUC) at the MRHD."}, "MATE1": {"biological_target": "MATE1 (Homo sapiens, UniProt Q96FL8)", "sequence (Q96FL8 whole entry)": "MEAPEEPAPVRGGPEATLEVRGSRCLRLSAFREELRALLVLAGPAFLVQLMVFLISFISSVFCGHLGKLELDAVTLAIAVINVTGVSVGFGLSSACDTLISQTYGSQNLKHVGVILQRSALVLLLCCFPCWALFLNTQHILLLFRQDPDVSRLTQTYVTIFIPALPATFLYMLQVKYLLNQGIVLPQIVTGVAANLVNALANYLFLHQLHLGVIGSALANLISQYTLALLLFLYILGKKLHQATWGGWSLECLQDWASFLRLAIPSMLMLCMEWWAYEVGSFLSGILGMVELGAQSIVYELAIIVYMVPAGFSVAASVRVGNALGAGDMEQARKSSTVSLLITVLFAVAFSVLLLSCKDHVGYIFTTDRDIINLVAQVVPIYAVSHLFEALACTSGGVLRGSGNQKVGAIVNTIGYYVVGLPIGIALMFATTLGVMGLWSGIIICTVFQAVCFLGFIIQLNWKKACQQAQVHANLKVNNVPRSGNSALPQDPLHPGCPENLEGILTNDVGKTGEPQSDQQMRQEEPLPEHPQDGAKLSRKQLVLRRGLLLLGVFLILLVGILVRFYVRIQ", "assay": "In vitro transporter inhibition", "type": "in vitro ADME"}, "Solubility": {"assay": "Solubility", "type": "physicochemical"}}, "data": [{"compound": "CC(C)n1c(=O)cc(N[C@@H](C)c2ccccc2)[nH]c1=O", "note": "[mavacamten, (S)-3-Isopropyl-6-((1-phenylethyl)amino)pyrimidine-2,4(1H,3H)-dione]", "values": [{"measurement": "Increase in AUCinf in CYP2C19 PMs compared to NMs", "setting": "CYP2C19 [1]", "result": 241, "unit": "%"}, {"measurement": "Increase in Cmax in CYP2C19 PMs compared to NMs", "setting": "CYP2C19 [1]", "result": 47, "unit": "%"}, {"measurement": "Subgroup analysis of the primary composite functional endpoint", "setting": "[2]; FIG. 17", "result": "consistently favored MAVACAMTEN across all subgroups analyzed"}, {"measurement": "Adverse reaction: syncope, patients", "setting": "[2]; MAVACAMTEN 2.5-15 mg daily, N=123, placebo 2%", "result": 6, "unit": "%"}, {"measurement": "Adverse reaction: dizziness, patients", "setting": "[2]; MAVACAMTEN 2.5-15 mg daily, N=123, placebo 18%", "result": 27, "unit": "%"}, {"measurement": "Improvement across secondary endpoints vs placebo", "setting": "[2]; Week 30", "result": "greater improvement compared to the placebo group across all secondary endpoints"}, {"measurement": "NYHA Class improved ≥1, difference vs placebo", "setting": "[2]; Week 30", "result": 34, "unit": "%"}, {"measurement": "Total responders, difference vs placebo (95% CI)", "setting": "[2]; Week 30", "result": "19% (9, 30)"}, {"measurement": "pVO2 ≥1.5 mL/kg/min and decreased NYHA, difference vs placebo (95% CI)", "setting": "[2]; Week 30", "result": "19% (9, 30)"}, {"measurement": "pVO2 ≥3 mL/kg/min and NYHA not increased, difference vs placebo (95% CI)", "setting": "[2]; Week 30", "result": "13% (3, 22)"}, {"measurement": "Change from baseline pVO2 ≥1.5 mL/kg/min and decreased NYHA, number", "setting": "[2]; Week 30, N=123", "result": 41}, {"measurement": "Change from baseline pVO2 ≥3 mL/kg/min and NYHA not increased, number", "setting": "[2]; Week 30, N=123", "result": 29}, {"measurement": "Number with NYHA Class improved ≥1", "setting": "[2]; Week 30, N=123", "result": 80}, {"measurement": "Primary composite functional endpoint, total responders, number", "setting": "[2]; Week 30, N=123", "result": 45}, {"measurement": "Primary composite functional endpoint, total responders, percent", "setting": "[2]; Week 30, N=123, placebo 17%", "result": 37, "unit": "%"}, {"measurement": "KCCQ-23 CSS, change from baseline, mean", "setting": "[2]; Week 30, n=99, placebo 4", "result": 14}, {"measurement": "HCMSQ SoB, change from baseline, mean", "setting": "[2]; Week 30, n=108, placebo −1", "result": "−3"}, {"measurement": "KCCQ-23 PL, change from baseline, mean", "setting": "[2]; Week 30, placebo 4", "result": 15}, {"measurement": "KCCQ-23 TSS, change from baseline, mean", "setting": "[2]; Week 30, placebo 5", "result": 12}, {"measurement": "Change from baseline pVO2 ≥3 mL/kg/min and NYHA not increased, percent", "setting": "[2]; Week 30, placebo 11%", "result": 23, "unit": "%"}, {"measurement": "Change from baseline pVO2 ≥1.5 mL/kg/min and decreased NYHA, percent", "setting": "[2]; Week 30, placebo 14%", "result": 33, "unit": "%"}, {"measurement": "Percent with NYHA Class improved ≥1", "setting": "[2]; Week 30, placebo 31%", "result": "(65%)"}, {"measurement": "LVEF outcome after interruption in patients with LVEF <50%", "setting": "[2]; all 7 patients", "result": "LVEF recovered following interruption"}, {"measurement": "Benefit by background beta blocker therapy", "setting": "[2]; attenuated improvement in pVO2", "result": "smaller in patients on background beta blocker therapy"}, {"measurement": "Post-Exercise LVOT gradient, difference vs placebo", "setting": "[2]; baseline to Week 30", "result": "−35", "unit": "mmHg"}, {"measurement": "pVO2, difference vs placebo", "setting": "[2]; baseline to Week 30", "result": 1.4, "unit": "mL/kg/min"}, {"measurement": "Change in pVO2, mean", "setting": "[2]; baseline to Week 30, placebo −0.1", "result": 1.4, "unit": "mL/kg/min"}, {"measurement": "Change in Post-Exercise LVOT gradient, mean", "setting": "[2]; baseline to Week 30, placebo −10", "result": "−47", "unit": "mmHg"}, {"measurement": "patients who temporarily interrupted their dose due to LVEF <50%", "setting": "[2]; in vivo", "result": "Three"}, {"measurement": "patients whose LVEF reduction to <50% was asymptomatic", "setting": "[2]; of the 7 MAVACAMTEN patients", "result": 3}, {"measurement": "mean (SD) absolute change from baseline in LVEF", "setting": "[2]; over the 30-week treatment period, placebo 0% (7)", "result": "-4% (8)"}, {"measurement": "Syncope leading to discontinuation, patients", "setting": "[2]; patients receiving MAVACAMTEN", "result": 0.8, "unit": "%"}, {"measurement": "onset of reduction in LVOT gradient", "setting": "[2]; sustained throughout the 30-week trial", "result": "reductions in mean resting and provoked (Valsalva) LVOT gradient by Week 4"}, {"measurement": "patients with reversible reductions in LVEF to <50%, number", "setting": "[2]; while on treatment, N=123", "result": 7}, {"measurement": "patients with reversible reductions in LVEF to <50%, percent", "setting": "[2]; while on treatment, placebo 2%", "result": 6, "unit": "%"}, {"measurement": "Induction of CYP2B6", "setting": "CYP2B6 [3]", "result": "inducer"}, {"measurement": "Inhibition of CYP2C8", "setting": "CYP2C8", "result": "does not inhibit"}, {"measurement": "Inhibition of CYP3A4", "setting": "CYP3A4", "result": "not an inhibitor"}, {"measurement": "Inhibition of CYP1A2", "setting": "CYP1A2", "result": "does not inhibit"}, {"measurement": "Inhibition of CYP2B6", "setting": "CYP2B6 [4]", "result": "does not inhibit"}, {"measurement": "Inhibition of CYP2C19", "setting": "CYP2C19 [5]", "result": "not an inhibitor"}, {"measurement": "Inhibition of CYP2C9", "setting": "CYP2C9", "result": "not an inhibitor"}, {"measurement": "Inhibition of CYP2D6", "setting": "CYP2D6", "result": "not an inhibitor"}, {"measurement": "Increase in mavacamten AUCinf", "setting": "CYP2C19 [6]", "result": 48, "unit": "%"}, {"measurement": "Plasma exposure (AUC) at the NOAEL vs human exposure at the MRHD", "setting": "rats", "result": 0.1, "unit": "times"}, {"measurement": "Inhibition of MATE1", "setting": "MATE1", "result": "does not inhibit"}, {"measurement": "Solubility in DMSO and NMP", "setting": "Solubility", "result": "freely soluble"}, {"measurement": "Solubility in methanol and ethanol", "setting": "Solubility", "result": "sparingly soluble"}, {"measurement": "Solubility in water and aqueous buffers", "setting": "Solubility; pH 2-10", "result": "practically insoluble"}]}]}
